Patent US11207321B2, “Methods and medical uses” (Institute of Cancer Research: Royal Cancer Hospital (The), priority 2017, dated 2021)

System: palbociclib-resistant breast cancer cell lines (wild type and LTED)
Assay: Proliferation assays with MPS1 inhibitors in panel of palbociclib-resistant breast cancer cell lines
Format: cell-based
Details: addition of CCT289346 to palbociclib
Description: Wt cells were stripped of E2 for 72 hrs prior to experiment. After 24 hrs cells were treated with escalating doses of MPS1 inhibitors±palbocliclib. Media was replaced after 3 days and cell viability was assessed after 6 days using the CellTitre-Glo® Luminescent Cell Viability Assay (Promega) according to manufacturer's instructions.

## CCOc1cc(-c2nncn2C)ccc1Nc1ncc2cc(C)nc(NCC(C)(C)C)c2n1 [CCT289346, N2-(2-ethoxy-4-(4-methyl-4H-1,2,4-triazol-3-yl)phenyl)-6-methyl-N8-neopentylpyrido[3,4-d]pyrimidine-2,8-diamine]
  effect of combination with palbociclib: synergistic/additive effect
